Reference: US4742083A, “Method of relieving pain and inflammatory conditions employing substituted salicylamides” (Lever Brothers Company, priority 1985, dated 1988)

Assays:
[1] = test system: mice backs (skin); details: topical application to mice backs, in vivo tumor promotion studies; cited from earlier work
[2] = test system: inflammation of mice ears caused by calcium ionophore (A-23187); test: Reduction of A-23187-induced ear inflammation (edema and erythema), Examples 4-7, each animal its own control; type: in vivo, male outbred hairless mice; details: for anti-inflammatory activity (in words): at the concentration used (1.5 micromole topical); for reduction of inflammation (reference anti-inflammatories): topical, 30 minutes after application of A-23187
Excerpt: In a group of 5 male outbred hairless mice, inflammation is induced on their ears by the topical application thereto of 4.0 nmole in acetone solution (total volume 10 microliter) of the known divalent calcium ionophore (antibiotic A-23187), which is derived from Streptomyces chartreusis and is a member of a known class of compounds showing ionophoric activity. See, e.g. Pressman, B. C., "Biological Applications of Ionophores", Ann. Rev. Biochem., 45, 501, 1976. […] See Marks, F., Furstenberger, G., and Kownatzki, E., "Prostaglandin E-mediated Mitogenic Stimulation of Mouse Epidermis in vivo by divalent cation ionophore A-23187 and by tumor promoter 12-O-tetradecanoyl phorbol-13-acetate, Cancer Res., 41, 696, 1981.
In each animal only one ear is treated, the other untreated ear serving as a control.
In Examples 4, 5 and 6 the compounds AN-10, APCF3-8 and AMCF3-8, respectively, are topically applied to the treated ears of different groups of five male outbred hairless mice 30 minutes following the topical application thereto of the ionophore A-23187. Specifically, 1.5 micromole of the amido compound in acetone solution (total volume 10 microliters) is applied topically to treated male outbred hairless mice ears 30 min. after topical application thereto of a calcium ionophore (A-23187, 4.0 nmole total volume to 10 microliter) in acetone. As already noted, in each case, each animal serves as its own control in that only one ear is subjected to said test regime while the other ear is left untouched. Erythema and edema are assessed 4 hrs. after application of the ionophore. In Control Example 7, 3,4',5-tribromosalicylanilide (TBS) is applied in the same manner.

[3] = test system: untreated mice ears; test: Inflammatory potential on untreated mice ears (Study B, Day 1); type: in vivo, hairless outbred mice (Skh:hr-1 strain); details: 1.5 micromole per 10 microliter on untreated ears
Experimental: (§1) Acute inflammation is induced by the application of 4 nano mole of the antibiotic A-23187 to the ears of young, male, adult hairless outbred mice (Skh:hr-1 strain). Thereafter, one of the compounds AN-10, AMCF3-8, ACBXE-9, acryloyl AN-10, S-4-F and SAN-6 is applied to the affected ears and the degree of reduction in edema (inflammation) noted.
(§2) A second group of studies (Study B) is conducted on two consecutive days with two sets of mice (totalling 80 animals) received from the same shipment.
The first batch of 40 animals is divided into 8 groups of 5 each. […] The remaining two groups of 5 animals each serve as controls and their ears are dosed with A-23187 and acetone respectively.
(§3) The amount of each salicylamide compound applied is kept constant, for Days 1 and 2, at 1.5 micromole per 10 microliter of test solution. Sacrifice begins four hours after application A-23187, on both days, and the results are recorded. Table 2 summarizes the results of the regimen of testing involved with each one of the 30 animals in question on Day 2 with the remaining 10 animals serving as controls as already noted.

[4] = test system: inflammation of mice ears caused by antibiotic A-23187; test: Reduction of A-23187-induced ear edema by ear weights, Examples 8-14; type: in vivo, hairless outbred mice (Skh:hr-1 strain); details: for Reduction in Edema (%), Study B: Day 2, 1.5 micromole per 10 microliter, A-23187 (4 nmole), sacrifice from 4 hours; for antiinflammatory activity (in words): under the test conditions of Table 2
Excerpt: as §1
The method used in the subject Examples differs from the method used in the preceding Examples (4 through 7) in two respects.
Secondly, in the expression of the data, the objective parameter of ear weights is used as the sole data source (for the reduction of edema) as erythematous responses are not recorded. Ear weights are determined by sacrificing the animals four hours after initial application of the antibiotic A-23187 or other control material by the use of CO2 gas. Thereafter, the ears are excised by cutting along the characteristic ridge readily discernible along the inner aspect of the ears. Wet and dry ear weights are used to determine the extent of the edema or inflammation present.
In Study A, 28 test animals are randomized into four treatment groups of seven each and subjected to the following ear treatment regimen:
Each animal is dosed with a treatment consisting of a 10 microliter quantity of the assigned test material solution (or pure acetone in the case of the animals of Group D) applied to the outer aspect of both ears, i.e., 10 microliter of test material per ear. The concentrations of the respective materials in acetone solution are such that a 10 microliter dose of a solution of the antibiotic A-23187 contains 4 nano mole of such antibiotic. The corresponding quantity in the case of the AN-10 in acetone solution is 1.5 micromole. The animals of Groups A and B are initially treated with the acetone solution of A-23187. In the case of the animals of Group B alone, 10 microliter of the acetone solution of AN-10 is applied to the affected ears 1/2 hour after the application of the above-mentioned quantity of a solution in acetone of the antibiotic A-23187. The animals of Group C receive a 10 microliter dose per ear of the AN-10 in acetone solution alone. The animals of Group D receive a dose of 10 microliter per ear of pure acetone. All the test subjects are sacrificed four hours after the application of A-23187 to the animals of Groups A and B or the other test materials in the case of the animals of Groups C and D. The results are summarized in Table 2 noted below.
as §2
On Day 2, using the second set of 40 mice, sub-divided into 8 groups of 5 each, the six compounds in question are applied as acetone solutions in the manner described under Study A to mice ears inflamed with A-23187 again, as described in Study A above. As with the studies conducted on Day 1, the remaining two groups of 5 animals each serve as controls and their ears are dosed with A-23187 and acetone respectively.
as §3

[5] = single dose oral route, Osborne-Mendel white rats, sixteen females; cited from earlier work
[6] = comparison; oral, rats; cited from earlier work
[7] = 1.5 micromole topical, 30 min after A-23187 (4.0 nmole), assessed 4 hrs after ionophore

CNc1ccc2oc(C[C@H]3O[C@@]4(CC[C@H]3C)O[C@H]([C@H](C)C(=O)c3ccc[nH]3)[C@H](C)C[C@H]4C)nc2c1C(=O)O [A-23187]
skin irritation [1]: potent ability to cause skin irritation | acute inflammation on treated ears after topical A-23187 ([2]; within 4 hours following topical application, time and dose dependent): Acute inflammation develops

CCCCCCCCC(=O)c1ccc(O)c(C(=O)Nc2cccc(C(=O)OCC)c2)c1 [ACBXE-9]
noticeable inflammation (inflammatory potential) [3]: none of the six compounds being tested cause any noticeable inflammation | Reduction in Edema (%), Study B ([4]; ear weights): 76% | antiinflammatory activity (in words) [4]: significant antiinflammatory activity

CCCCCCCC(=O)c1ccc(O)c(C(=O)Nc2cccc(C(F)(F)F)c2)c1 [AMCF3-8]
noticeable inflammation (inflammatory potential) [3]: none of the six compounds being tested cause any noticeable inflammation | Reduction in Edema (%), Study B ([4]; ear weights): 81% | antiinflammatory activity (in words) [4]: significant antiinflammatory activity | anti-inflammatory activity (in words) [2]: effective anti-inflammatories

CCCCCCCCCC(=O)c1ccc(O)c(C(=O)Nc2ccc([N+](=O)[O-])cc2)c1 [AN-10]
LD50 [5]: greater than 2000 mg./kg. | noticeable inflammation (inflammatory potential) [3]: none of the six compounds being tested cause any noticeable inflammation | Reduction in Edema (%), Study A ([4]; Study A, 1.5 micromole per ear, 1/2 hour after A-23187 (4 nmole), sacrificed at 4 hours, ear weights): 55% | Reduction in Edema (%), Study B ([4]; ear weights): 81% | antiinflammatory activity (in words) [4]: significant antiinflammatory activity | anti-inflammatory activity (in words) [2]: effective anti-inflammatories

CCCCCCCC(=O)c1ccc(O)c(C(=O)Nc2ccc(C(F)(F)F)cc2)c1 [APCF3-8]
anti-inflammatory activity (in words) [2]: effective anti-inflammatories

CCCCc1ccc(O)c(C(=O)Nc2cccc(C(F)(F)F)c2)c1 [S-4-F]
noticeable inflammation (inflammatory potential) [3]: none of the six compounds being tested cause any noticeable inflammation | Reduction in Edema (%), Study B ([4]; ear weights): 70% | antiinflammatory activity (in words) [4]: significant antiinflammatory activity

CCCCCCc1ccc(O)c(C(=O)Nc2ccc([N+](=O)[O-])cc2)c1 [SAN-6]
noticeable inflammation (inflammatory potential) [3]: none of the six compounds being tested cause any noticeable inflammation | Reduction in Edema (%), Study B ([4]; ear weights): 59% | antiinflammatory activity (in words) [4]: significant antiinflammatory activity

O=C(Nc1ccc(Br)cc1)c1cc(Br)cc(Br)c1O [TBS, 3,4',5-tribromosalicylanilide]
Reduction in Edema (%) [2, 7]: 12% | Reduction in Erythema (%) [2, 7]: 35% | anti-inflammatory activity (in words) [2]: essentially inactive

C=CC(=O)Oc1ccc(C(=O)CCCCCCCCC)cc1C(=O)Nc1ccc([N+](=O)[O-])cc1 [acryloyl AN-10]
noticeable inflammation (inflammatory potential) [3]: none of the six compounds being tested cause any noticeable inflammation | Reduction in Edema (%), Study B ([4]; ear weights): 82% | antiinflammatory activity (in words) [4]: significant antiinflammatory activity

CC(=O)Oc1ccccc1C(=O)O [aspirin, acetylsalicylic acid]
LD50 (comparable toxicity of aspirin) [6]: about 1.75 g/kg. body weight

C[C@]12CCC(=O)C=C1CC[C@@H]1[C@@H]2[C@@H](O)C[C@@]2(C)[C@H]1CC[C@]2(O)C(=O)CO [hydrocortisone]
reduction of inflammation (reference anti-inflammatories) [2]: reduction of inflammation

COc1ccc2c(c1)c(CC(=O)O)c(C)n2C(=O)c1ccc(Cl)cc1 [indomethacin]
reduction of inflammation (reference anti-inflammatories) [2]: reduction of inflammation
